According to PubChem BioAssay AID2060505 (Molecular Pharmacology Branch, DTP, NCI, 2025):

Test system: 633275-114-R-J1-PDC complex spheroids, viability
Assay: Anticancer human tumor 633275-114-R-J1-PDC patient-derived endometrial adenocarcinoma cell line growth inhibition [GQUAD]
Settings: for IC50: curve of first compound; for viability, T/C: stronger effect = lower value
From the text: DNA G-quadruplex Stabilizer Agents in Combinations in Complex Spheroids
A high-throughput screen of multi-cell type tumor spheroids was designed to identify active combinations of DNA G-quadruplex stabilizer agents and targeted small molecules. Complex spheroids include a stromal component modeled by human endothelial cells (HUVEC) and fibroblasts modeled by human mesenchymal stem cells (MSCs). The concentration ranges selected for each drug and investigational agent were based upon clinically achievable concentrations if the clinical Cmax of the agent was known.
Compounds. The drugs and investigational agents: pidnarulex (CX-5461; NSC782164), APTO-253 (NSC789042), BRACO-19 (NSC847499), peposertib (NSC802822), ceralasertib (NSC780249), elimusertib (NSC800525), camonsertib (NSC841442), AZD-1390 (NSC803789), olaparib (NSC753686), talazoparib (NSC767125), ART-558 (NSC835418), sotorasib (NSC818433), MRTX-1133 (NSC836407), SN-38 (NSC673596), topotecan (NSC609699), etoposide (NSC141540), doxorubicin (NSC123127), gemcitabine (NSC613327), 5-fluorouracil (NSC19893), paclitaxel (NSC125973), vemurafenib (NSC761431), panobinostat (NSC761190), R-306465 (JNJ-16241199; NSC773264), adavosertib (NSC754352), TP-3654 (NSC805149), carboplatin (NSC241240), KSQ-4279 (NSC840948), and staurosporine (NSC755774) were obtained from the National Cancer Institute (NCI) Developmental Therapeutics Program Chemical Repository (34). The FDA-approved anticancer drug set is available from the NCI Developmental Therapeutics Program. […] The stock solutions were prepared in dimethyl sulfoxide (DMSO, Sigma-Aldrich, St. Louis, MO, cat. D2650) at 800-fold the tested concentration and stored at -70 degrees C prior to their use. All drugs and investigational agents were tested over a range starting from a high concentration at or near the clinical Cmax and decreasing in half-log increments. If the clinical Cmax for an agent had not been determined, the highest concentration tested was 10 microM.
2.3 Cell Culture. All cells were maintained in an incubator at 37 degrees C and 5% CO2 with 95% humidity. The PDC lines were cultured according to standard operating procedures established by the NCI PDMR. All PDCs were thawed and cultured in Matrigel-coated flasks prepared with a working solution of 1X Ham's F-12 nutrient mix, without supplementation (Invitrogen, cat. 11765054), 100 U/mL penicillin-streptomycin (Invitrogen, cat. 15140122), and 2.5% Matrigel (Corning Inc., cat. 354248) for the first three passages. The 857933-349-R-J2-PDC line was cultured in 6C/Colon 1B media, which includes advanced DMEM/F-12 (Thermo Fisher Scientific, cat. 12634028), 10 mM HEPES (Thermo Fisher Scientific, cat. 15630080), 1X GlutaMAX supplement (Thermo Fisher Scientific, cat. 35050061), 0.1 mg/mL primocin (InvivoGen, cat. ant-pm-2), 10% defined fetal bovine serum, heat inactivated (HyClone Laboratories Inc., cat. SH30070.03HI), 50% L-WRN conditioned media (ATCC, cat. CRL-3276), 1.25 mM N-Acetyl-L-cysteine (Sigma-Aldrich, cat. A9165), 10 mM nicotinamide (Sigma-Aldrich, cat. N0636), 1X B-27 supplement (Thermo Fisher Scientific, cat. 17504044), 1X N-2 supplement (Thermo Fisher Scientific, cat. 17502048), 10 microM Y-27632 dihydrochloride (Tocris Bioscience, cat. 1254), and 50 ng/mL human EGF recombinant protein (Thermo Fisher Scientific, cat. PHG0311). The 485176-168-R4-J1-PDC line was cultured in Panc media, which includes all 6C/Colon 1B media components plus 100 ng/mL human FGF-10 (Thermo Fisher Scientific, cat. 100-26), 500 nM SB-431542 (Selleckchem, cat. S1067), and gastrin (Tocris, cat. 3006).
[…]

[1] = second compound 0.0316 µM, first compound 0.0316 µM
[2] = second compound 0.0316 µM, first compound 0.316 µM
[3] = second compound 0.1 µM, first compound 0.0316 µM
[4] = second compound 0.1 µM, first compound 0.316 µM
[5] = second compound 0.316 µM, first compound 0.0316 µM
[6] = second compound 0.316 µM, first compound 0.316 µM
[7] = second compound 1 µM, first compound 0.0316 µM
[8] = second compound 1 µM, first compound 0.316 µM
[9] = second compound 3.16 µM, first compound 0.0316 µM
[10] = second compound 3.16 µM, first compound 0.316 µM
[11] = second compound 10 µM, first compound 0.0316 µM
[12] = second compound 10 µM, first compound 0.316 µM
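Further: spheroids exposed to the agents for seven days.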
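Wherever viability, T/C is given: percent of DMSO vehicle control viability which is 100%.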

Q: Which results are given for `COc1ncnc(C2CC2)c1-c1ncc2cnn(Cc3ccc(-c4nc(C(F)(F)F)cn4C(C)C)cc3)c2n1` + Cc1[nH]c2ccc(F)cc2c1-c1nc2c3cccnc3c3ncccc3c2[nH]1?
A: IC50 (second compound 0.0316 µM): > 10000 nM; IC50 (second compound 0.1 µM): > 10000 nM; IC50 (second compound 0.316 µM): > 10000 nM; IC50 (second compound 1 µM): > 10000 nM; IC50 (second compound 3.16 µM): > 10000 nM; IC50 (second compound 10 µM): > 10000 nM; viability, T/C [1]: 95.6%; viability, T/C (second compound 0.0316 µM, first compound 0.1 µM): 91.5%; viability, T/C [2]: 100%; viability, T/C (second compound 0.0316 µM, first compound 1 µM): 93.2%; viability, T/C (second compound 0.0316 µM, first compound 3.16 µM): 91.4%; viability, T/C (second compound 0.0316 µM, first compound 10 µM): 89.8%; viability, T/C [3]: 98.2%; viability, T/C (second compound 0.1 µM, first compound 0.1 µM): 102%; viability, T/C [4]: 89.5%; viability, T/C (second compound 0.1 µM, first compound 1 µM): 96.7%; viability, T/C (second compound 0.1 µM, first compound 3.16 µM): 92.1%; viability, T/C (second compound 0.1 µM, first compound 10 µM): 87.7%; viability, T/C [5]: 93.4%; viability, T/C (second compound 0.316 µM, first compound 0.1 µM): 87.9%; viability, T/C [6]: 87.3%; viability, T/C (second compound 0.316 µM, first compound 1 µM): 82.3%; viability, T/C (second compound 0.316 µM, first compound 3.16 µM): 99.7%; viability, T/C (second compound 0.316 µM, first compound 10 µM): 91.8%; viability, T/C [7]: 86.7%; viability, T/C (second compound 1 µM, first compound 0.1 µM): 90%; viability, T/C [8]: 93.2%; viability, T/C (second compound 1 µM, first compound 1 µM): 81.3%; viability, T/C (second compound 1 µM, first compound 3.16 µM): 93.5%; viability, T/C (second compound 1 µM, first compound 10 µM): 87.1%; viability, T/C [9]: 70%; viability, T/C (second compound 3.16 µM, first compound 0.1 µM): 78.4%; viability, T/C [10]: 64.1%; viability, T/C (second compound 3.16 µM, first compound 1 µM): 62.7%; viability, T/C (second compound 3.16 µM, first compound 3.16 µM): 73.2%; viability, T/C (second compound 3.16 µM, first compound 10 µM): 67%; viability, T/C [11]: 59.8%; viability, T/C (second compound 10 µM, first compound 0.1 µM): 63.1%; viability, T/C [12]: 56%; viability, T/C (second compound 10 µM, first compound 1 µM): 60.5%; viability, T/C (second compound 10 µM, first compound 3.16 µM): 62.3%; viability, T/C (second compound 10 µM, first compound 10 µM): 60.3%

Q: With `CCc1c2c(nc3ccc(O)cc13)-c1cc3c(c(=O)n1C2)COC(=O)[C@]3(O)CC` + Cc1cnc(CNC(=O)c2c(=O)c3ccc(N4CCCN(C)CC4)nc3n3c2sc2ccccc23)cn1 as the compound, how does the IC50 (second compound 0.0316 µM) read?
A: 1.6 nM

Q: And the IC50 (second compound 0.1 µM)?
A: < 0.999 nM

Q: What about the IC50 (second compound 0.316 µM) of the same compound?
A: < 0.999 nM

Q: What about the IC50 (second compound 1 µM) of the same compound?
A: < 0.999 nM

Q: What about the IC50 (second compound 3.16 µM) of the same compound?
A: < 0.999 nM

Q: What about the IC50 (second compound 10 µM) of the same compound?
A: < 0.999 nM

Q: And the viability, T/C (second compound 0.0316 µM, first compound 0.000999 µM)?
A: 57.4%

Q: And the viability, T/C (second compound 0.0316 µM, first compound 0.00316 µM)?
A: 38.5%

Q: What about the viability, T/C (second compound 0.0316 µM, first compound 0.00999 µM) of the same compound?
A: 32.5%

Q: And the viability, T/C [1]?
A: 32.5%

Q: What about the viability, T/C (second compound 0.0316 µM, first compound 0.0999 µM) of the same compound?
A: 26.6%

Q: What about the viability, T/C [2] of the same compound?
A: 24.4%

Q: What about the viability, T/C (second compound 0.1 µM, first compound 0.000999 µM) of the same compound?
A: 46.3%

Q: And the viability, T/C (second compound 0.1 µM, first compound 0.00316 µM)?
A: 36.2%

Q: And the viability, T/C (second compound 0.1 µM, first compound 0.00999 µM)?
A: 35.4%

Q: And the viability, T/C [3]?
A: 32.4%

Q: What about the viability, T/C (second compound 0.1 µM, first compound 0.0999 µM) of the same compound?
A: 27.2%

Q: And the viability, T/C [4]?
A: 25.2%

Q: And the viability, T/C (second compound 0.316 µM, first compound 0.000999 µM)?
A: 42.9%

Q: And the viability, T/C (second compound 0.316 µM, first compound 0.00316 µM)?
A: 37.9%

Q: And the viability, T/C (second compound 0.316 µM, first compound 0.00999 µM)?
A: 33.9%

Q: What about the viability, T/C [5] of the same compound?
A: 31.2%

Q: And the viability, T/C (second compound 0.316 µM, first compound 0.0999 µM)?
A: 30%

Q: And the viability, T/C [6]?
A: 26.8%

Q: What about the viability, T/C (second compound 1 µM, first compound 0.000999 µM) of the same compound?
A: 40.4%

Q: And the viability, T/C (second compound 1 µM, first compound 0.00316 µM)?
A: 35.3%

Q: And the viability, T/C (second compound 1 µM, first compound 0.00999 µM)?
A: 35.9%

Q: What about the viability, T/C [7] of the same compound?
A: 30.2%

Q: What about the viability, T/C (second compound 1 µM, first compound 0.0999 µM) of the same compound?
A: 27.8%

Q: And the viability, T/C [8]?
A: 18.7%

Q: What about the viability, T/C (second compound 3.16 µM, first compound 0.000999 µM) of the same compound?
A: 34%

Q: And the viability, T/C (second compound 3.16 µM, first compound 0.00316 µM)?
A: 31.9%

Q: And the viability, T/C (second compound 3.16 µM, first compound 0.00999 µM)?
A: 28.3%

Q: And the viability, T/C [9]?
A: 27%

Q: What about the viability, T/C (second compound 3.16 µM, first compound 0.0999 µM) of the same compound?
A: 24.9%

Q: What about the viability, T/C [10] of the same compound?
A: 13.4%

Q: What about the viability, T/C (second compound 10 µM, first compound 0.000999 µM) of the same compound?
A: 30.3%

Q: What about the viability, T/C (second compound 10 µM, first compound 0.00316 µM) of the same compound?
A: 28%

Q: What about the viability, T/C (second compound 10 µM, first compound 0.00999 µM) of the same compound?
A: 26.4%

Q: What about the viability, T/C [11] of the same compound?
A: 27.8%

Q: And the viability, T/C (second compound 10 µM, first compound 0.0999 µM)?
A: 21.1%

Q: And the viability, T/C [12]?
A: 0.26%
